Legend:
[1] = Formation of inclusion complexes with MCD (UV spectroscopy, Hill linearization); type: physicochemical; details: MCD; for EE, % / LC, %: C(MCD) = 0.01 M, pH 6.2, 22 °C; for n: Xaq + n MCDaq ⇌ X·nMCDaq, 5 mM sodium phosphate buffer pH 6.2, 22 °C
Experimental: To optimize the system composition, similar experiments were carried out on the formation of EG and apiol inclusion complexes with HPCD (Figure S1). […] According to these changes, the dissociation constants of the EG–HPCD and apiol–HPCD complexes (Figure S2) were calculated by Hill’s equation (Table 1). […] The physicochemical parameters of the interaction of APAB and terpenoids (X) with CD were studied by determining the concentration of substances in the aqueous fraction ([APAB] + [APAB-MCD]) according to the calibration dependence (Figure 1C) for systems with a constant amount of the essential oil component X and the concentration gradient MCD (Table 1). Theta (θ) is a fraction of the bound substance X:θ = [X-MCD]/([X-MCD] + [X]) and was calculated based on the dependence of the absorption intensity X on the MCD concentration in the system in the form of a sigmoidal Hill curve with subsequent linearization (Section 3, Section 3.3 and Section 3.4).
The molar excess of CD varied from 0.04 to 10). Further, the complexes were incubated for 1 h at 37 °C and then centrifuged ([…], 15 min, Eppendorf tubes) to separate the insoluble fractions. Complexes were studied by UV and FTIR spectroscopy.
UV spectra of solutions (point 3.3.1) were recorded on the AmerSham Biosciences UltraSpec 2100 pro device (USA) three times in the range of 200–400 nm in a quartz cell Hellma 100–QS with an optical path of 1 cm. Background spectrum (5 mM sodium phosphate buffer (pH 6.2) with 50% EtOH) was subtracted as a blank.
(1) Calculation of the dissociation constants X–MCD and X–HPCD, where X is a “guest” compound, considering the equilibrium: Xaq + n MCDaq ↔ X·nMCDaq, where Kd = [MCDaq]^n · [Xaq]/[X·nMCDaq].
First, fitting of the curves of change of the analytical signal ξ (peak intensity or peak position) versus concentration of the MCD or HPCD or was carried out using the Hill equations: (1) ξ = ξ∞ · [MCD]^n/([MCD]^n + K^n), where ξ∞—horizontal asymptote; (2) ξ = ξ0 + (ξ∞–ξ0) · [MCD]^n/([MCD]^n + K^n). Second, calculation n and Kd values by Hill’s linearization in n-binding site model: lg (θ/(1 – θ)) = n · lg [L] – lg Kd, where θ = |(ξ – ξ0)/(ξ∞ − ξ0)|is a fraction of the bound substance. N in Hill equation—number of drug molecules per CD torus.
Calculations for the following items are performed when [MCD] = 0.01 M.

B. subtilis = assay: Synergy of adjuvant-MCD with Lev-MCD, growth inhibition zones in agar; type: cell-based, Bacillus subtilis; details: for D, diameter of bacterial inhibition zone surrounding Lev–MCD with APAB-MCD: Lev-MCD + X-MCD (1:2), ±0.5; for ϕLev = (D/DLev)^2: ±0.1
Experimental: We obtained complex formulations containing adjuvants-MCD and Lev-MCD. These complexes were referred to as enhanced Lev. The synergy effect was studied at a constant concentration of Lev and a variable concentration of an enhancer. […] Based on the D/DLev ratio, the effectiveness of cooperative antibacterial action (ϕ) of the adjuvant and Lev was calculated. The fractional inhibitory concentration (FIC) parameter was introduced: at a fixed Lev concentration, the FIC of adjuvant corresponds to the minimum fractional adjuvant concentration at which the antibacterial effect was still manifest (MICadjuvant in the presence of Lev). The fractional inhibitory concentration index (FICI) characterizes the ratio of the active Lev and adjuvant concentrations to the MIC values of these substances individually: FICI=[Lev]/MIC(Lev)[…][adjuvant]/MIC(adjuvant) (see Section 3).
The FICI was interpreted as: synergism (<0.35), additivity (0.35–0.75), indifference (0.75–1.4), or antagonism (>1.4). FICI is designed to determine the type of Lev interaction with adjuvants.
The study of the antibacterial effect of Lev and adjuvants was carried out by (a) agar diffusion test and (b) broth micro-dilution method. (a) A measured 500 µL of 100-fold culture dilution was evenly distributed over a solid nutrient medium (LB, pH 7.2) on a Petri dish. After 20 min, agar disks with a diameter of 9 mm were removed from the cups and 50 µL of the test samples were placed in the formed wells at the required concentration in a sterile PBS buffer (see Section 3.3 (2)). After 30 min, Petri dishes were placed in a 37 °C thermostat. […] Minimum inhibitory concentrations (MICs) are determined as the infimum of multiple concentrations of an antimicrobial that inhibits the visible growth of a microorganism after overnight incubation. (b) According to the standard broth micro-dilution method, 200 µL of the overnight culture (5 × 10^6 CFU) was placed into a 96 micro-titer plate wells. Then 50 µL of tested samples was added. The range of tested Lev concentration was 4–200 ng/mL, adjuvants concentration was in the range of 0.008–2 mg/mL. […] The dependence of CFU (determined by A600) on the concentration of Lev, APAB or terpenoid (briefly X) was approximated according to the Boltzmann equation (Origin software): CFU = (control CFU)/(1 + exp(([X] − MIC50)/constant value)). […] In other words, the concentration at which the ordinate value (CFU) is equal to 50 or 10% of the control sample minus the background.
The FICI was interpreted as: synergism (<0.35), additivity (0.35–0.75), indifference (0.76–1.4), or antagonism (>1.4). The essence of this expression is to calculate the average change in the effective concentration compared to MIC. Note that the most important parameter corresponds to a decrease in MIC of Lev. However, FICI is designed to determine the type of interaction Lev with adjuvants.

[2] = B. subtilis, CLev 0.4 μg/mL, ±15%
[3] = B. subtilis, CLev 0.7 μg/mL, ±15%
[4] = B. subtilis, CLev 1.5 μg/mL, ±15%

In the case of `C=CCc1cc(OC)c2c(c1OC)OCO2` [Apiol], the “EE, %” value [1] is reported as 20 ± 2%, the “LC, %” value [1] is reported as 11 ± 1% and the n [1] is reported as 1.6 ± 0.2.
For `C=CCc1ccc(O)c(OC)c1` [Eugenol, 4-allyl-2-methoxyphenol], the “EE, %” value [1] was 39 ± 3%, the “LC, %” value [1] was 10 ± 1% and the n [1] was 1.32 ± 0.08. The FICadjuvant (B. subtilis; B. subtilis, CLev 0.4 μg/mL) was 0.10 ± 0.01 mg/mL, the “Type of Interaction between Lev and X” value (B. subtilis; B. subtilis, CLev 0.4 μg/mL) was “Synergism (synergism (<0.35))” and the “D, diameter of bacterial inhibition zone surrounding Lev–MCD with APAB-MCD” value (B. subtilis; B. subtilis, CLev 0.4 μg/mL) was 14.5 mm. For the same compound, the “ϕLev = (D/DLev)^2” value (B. subtilis; B. subtilis, CLev 0.4 μg/mL) was 1.5, the FICI (B. subtilis; [2]) was 0.16 and the FICadjuvant (B. subtilis; B. subtilis, CLev 0.7 μg/mL) was 0.2 ± 0.02 mg/mL. For the same compound, the “Type of Interaction between Lev and X” value (B. subtilis; B. subtilis, CLev 0.7 μg/mL) was “Additivity (additivity (0.35–0.75))”, the “D, diameter of bacterial inhibition zone surrounding Lev–MCD with APAB-MCD” value (B. subtilis; B. subtilis, CLev 0.7 μg/mL) was 16 mm and the “ϕLev = (D/DLev)^2” value (B. subtilis; B. subtilis, CLev 0.7 μg/mL) was 1.2. For the same compound, the FICI (B. subtilis; [3]) was 0.56, the FICadjuvant (B. subtilis; B. subtilis, CLev 1.5 μg/mL) was 0.10 ± 0.01 mg/mL and the “Type of Interaction between Lev and X” value (B. subtilis; B. subtilis, CLev 1.5 μg/mL) was “Additivity (additivity (0.35–0.75))”. The “D, diameter of bacterial inhibition zone surrounding Lev–MCD with APAB-MCD” value (B. subtilis; B. subtilis, CLev 1.5 μg/mL) was 19 mm, the “ϕLev = (D/DLev)^2” value (B. subtilis; B. subtilis, CLev 1.5 μg/mL) was 1.2 and the FICI (B. subtilis; [4]) was 0.60. The “type of interaction with Lev” value (B. subtilis; Gram-positive cells (B. subtilis)) was “additivity”.
For `CC1CCC(C(C)C)C(O)C1` (stereo not shown) [Menthol], the “EE, %” value [1] was 91 ± 6%, the “LC, %” value [1] was 11 ± 1% and the “EE, %” value ([1]; listed as menthol) was “more than 90%”. For the same compound, the n [1] was 1.1 ± 0.1, the FICadjuvant (B. subtilis; B. subtilis, CLev 0.5 μg/mL) was 0.17 ± 0.01 mg/mL and the “Type of Interaction between Lev and X” value (B. subtilis; B. subtilis, CLev 0.5 μg/mL) was “Synergism (synergism (<0.35))”. For the same compound, the “D, diameter of bacterial inhibition zone surrounding Lev–MCD with APAB-MCD” value (B. subtilis; B. subtilis, CLev 0.5 μg/mL) was 18.5 mm, the “ϕLev = (D/DLev)^2” value (B. subtilis; B. subtilis, CLev 0.5 μg/mL) was 2.4 and the FICI (B. subtilis; B. subtilis, CLev 0.5 μg/mL, ±15%) was 0.11. The FICadjuvant (B. subtilis; B. subtilis, CLev 1 μg/mL) was 0.17 ± 0.01 mg/mL, the “Type of Interaction between Lev and X” value (B. subtilis; B. subtilis, CLev 1 μg/mL) was “Synergism (synergism (<0.35))” and the “D, diameter of bacterial inhibition zone surrounding Lev–MCD with APAB-MCD” value (B. subtilis; B. subtilis, CLev 1 μg/mL) was 18 mm. For the same compound, the “ϕLev = (D/DLev)^2” value (B. subtilis; B. subtilis, CLev 1 μg/mL) was 1.3, the FICI (B. subtilis; B. subtilis, CLev 1 μg/mL, ±15%) was 0.23 and the “efficiency parameter ϕ” value (B. subtilis; B. subtilis, adjuvant-MCD with Lev-MCD) was 2.4. The FICI (B. subtilis; B. subtilis, with Lev) was 0.08–0.11.
For `C=CCc1ccc2c(c1)OCO2` [Safrole], the “EE, %” value [1] was 95 ± 4%, the “LC, %” value [1] was 8 ± 1% and the “EE, %” value ([1]; listed as safrole) was “more than 90%”. The n [1] was 1.5 ± 0.2, the FICadjuvant (B. subtilis; B. subtilis, CLev 0.4 μg/mL) was 0.17 ± 0.02 mg/mL and the “Type of Interaction between Lev and X” value (B. subtilis; B. subtilis, CLev 0.4 μg/mL) was “Synergism (synergism (<0.35))”. For the same compound, the “D, diameter of bacterial inhibition zone surrounding Lev–MCD with APAB-MCD” value (B. subtilis; B. subtilis, CLev 0.4 μg/mL) was 14 mm, the “ϕLev = (D/DLev)^2” value (B. subtilis; B. subtilis, CLev 0.4 μg/mL) was 1.4 and the FICI (B. subtilis; [2]) was 0.08. The FICadjuvant (B. subtilis; B. subtilis, CLev 0.7 μg/mL) was 0.33 ± 0.03 mg/mL, the “Type of Interaction between Lev and X” value (B. subtilis; B. subtilis, CLev 0.7 μg/mL) was “Synergism (synergism (<0.35))” and the “D, diameter of bacterial inhibition zone surrounding Lev–MCD with APAB-MCD” value (B. subtilis; B. subtilis, CLev 0.7 μg/mL) was 16 mm. The “ϕLev = (D/DLev)^2” value (B. subtilis; B. subtilis, CLev 0.7 μg/mL) was 1.1, the FICI (B. subtilis; [3]) was 0.28 and the FICadjuvant (B. subtilis; B. subtilis, CLev 1.5 μg/mL) was 0.15 ± 0.02 mg/mL. The “Type of Interaction between Lev and X” value (B. subtilis; B. subtilis, CLev 1.5 μg/mL) was “Synergism (synergism (<0.35))”, the “D, diameter of bacterial inhibition zone surrounding Lev–MCD with APAB-MCD” value (B. subtilis; B. subtilis, CLev 1.5 μg/mL) was 20 mm and the “ϕLev = (D/DLev)^2” value (B. subtilis; B. subtilis, CLev 1.5 μg/mL) was 1.4. The FICI (B. subtilis; [4]) was 0.27 and the FICI (B. subtilis; B. subtilis, with Lev) was 0.08–0.11.

— PMC9321718 (Pharmaceuticals, 2022)
